Reference: patent publication US12629358B2, “Compound used as RET kinase inhibitor and application thereof” (TYK MEDICINES, INC., priority 2019, dated 2026)
Changes are numbered by the printed parent chain. Read-outs that look alike come from different tables or passages of the source.

Legend:
[1] = Metabolism test of drugs: plasma pharmacokinetics after intravenous and intragastric administration; assay type: in vivo; settings: SD rats; for CL_obs / AUC(0-inf) / AUC(0-t) / half-life / MRT / Vd / Cmax / Tmax: plasma; for F: PO 10 mg/kg vs IV 2 mg/kg; for AUC(0-inf) / AUC(0-t) / half-life / MRT / Vd / Cmax / Tmax: male, rat; for MRT: read-out: MRTINF_ obs; for Vd: read-out: Vss
Method: Four small molecule compounds of BLU-667, compound C2, compound C4 and compound C8 were administered to SD rats by intravenous and intragastric administration respectively. Blood samples were collected at different time points to determine the concentration of drugs in plasma after administration and calculate the related pharmacokinetics parameters.
The vehicle of BLU-667, C2, C4 and C8 was 10% NMP+49% PEG400+1% Tween80+40% Water. The specific preparation method was as follows: proper amount of tested samples was weighed, dissolved in 10% NMP+49% PEG400+1% Tween80+40% Water, mixed well by vortex for later use.
LC-MS/MS was used by the analysis department of the experimental organization to detect and analyze the prepared solution of sample for test.
Healthy male SD rats were used in this research. Animal weight: 150-200 g. All animals fasted before administration, and resumed feeding 4 hours after administration.
Time points for blood collection were: • Intravenous administration (groups 1, 3 and 5): 0.0833, 0.25, 0.5, 1, 2, 4, 8, 12 and 24 hours after administration. (±2 min at time point ≤2 hr, ±15 min at other points.) • Oral administration: (groups 2, 4, 6 and 7): 0.25, 0.5, 1, 2, 4, 8, 12 and 24 hours after administration. (±2 m at time point […] at other points.)
About 0.1 mL of blood was collected from each animal through jugular vein every time, and EDTA or heparin sodium was used as anticoagulant. Blood samples were collected and placed on ice, and plasma was separated by centrifugation (centrifugation conditions: 5000 r/min, 6 min, 4° C.).
LC-MS/MS was used by the analysis department of the experimental organization to analyze the plasma samples of rats.
According to the data of blood drug concentration of the drug, the pharmacokinetic parameters AUC0→t, AUC0→∞, MRT0→∞, CMax, TMax, Vss, F, CL and T1/2 as well as their mean and standard deviation of the samples for test were calculated respectively by pharmacokinetic calculation software WinNonlin non-compartment model.
The main pharmacokinetic parameters of BLU-667, compound C2, compound C4 and compound C8 in plasma after intravenous and single oral administration of BLU-667, compound C2, compound C4 and compound C8 in SD rats were shown in Table 3

[2] = tested on: tumor patients with RET fusion and mutation; settings: Phase I, cited from earlier work
[3] = target: T1, Ba/F3-KIF5B-RET-V804L cells (Homo sapiens, UniProt P07949, V804L); test: Cell anti-proliferation experiment (CellTiter-Glo), Ba/F3-KIF5B-RET-V804L; assay type: cell-based; settings: cell viability, 72 h
T1 construct: host or cells: Ba/F3 (BaF3 from RIKEN BRC CELL BANK); the other entry of the earlier key: KIF5B (P33176, Kinesin-1 heavy chain)
T1 sequence (P07949 713-1063 V804L limits assumed): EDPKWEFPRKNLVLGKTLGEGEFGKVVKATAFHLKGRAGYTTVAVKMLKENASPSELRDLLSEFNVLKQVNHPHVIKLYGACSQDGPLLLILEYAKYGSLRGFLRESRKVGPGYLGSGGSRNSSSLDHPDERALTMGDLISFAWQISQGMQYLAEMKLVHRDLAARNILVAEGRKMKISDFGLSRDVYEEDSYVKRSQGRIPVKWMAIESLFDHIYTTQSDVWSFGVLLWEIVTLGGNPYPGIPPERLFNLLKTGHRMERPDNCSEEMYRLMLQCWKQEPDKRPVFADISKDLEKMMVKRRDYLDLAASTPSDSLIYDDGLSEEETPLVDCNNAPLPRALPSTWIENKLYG
Method: (§1) Ba/F3-KIF5B-RET, Ba/F3-KIF5B-RET-V804L and Ba/F3-KIF5B-RET-V804M cells were constructed by PreceDo Pharmaceuticals Co., Ltd.
(§2) Ba/F3-KIF5B-RET, Ba/F3-KIF5B-RET-V804L and Ba/F3-KIF5B-RET-V804M medium: RPMI-1640+10% FBS+1% P/S.
(§3) A 1000× solution of the compound was prepared with DMSO, the compound was diluted to 20 times final concentration with a growth medium, and […] was added.
(§4) The suspended cells were rotated downward, resuscitated in the growth medium, and then counted with a cell counter. The cell suspension was diluted to the desired concentration in the growth medium. 95p L cell suspension was fed to a 96-well plate. 5 μL of 20× compound was added to the […], and the final DMSO concentration per well was 0.1%; incubated at 37° C. with 5% CO2 for 72 h
(§5) The plate was equilibrated to room temperature before measurement, 50 μl of CellTiter-Glo® reagent was added into each well, mixed on a shaker for 2 minutes, incubated at room temperature for 10 minutes, and recorded with Paradigm.
(§6) Cell viability was analyzed using Graphpad 7.0 software according to the formula Cell viability (CV %)=(RLU compound−RLU blank)/(RLU control−RLU blank)*100%, and the corresponding IC50 data were calculated as shown in Table 2

[4] = target: T2, Ba/F3-KIF5B-RET-V804M cells (Homo sapiens, UniProt P07949, V804M); test: Cell anti-proliferation experiment (CellTiter-Glo), Ba/F3-KIF5B-RET-V804M; assay type: cell-based; settings: cell viability, 72 h
T2 construct: host or cells: Ba/F3 (BaF3 from RIKEN BRC CELL BANK); the other entry of the earlier key: KIF5B (P33176, Kinesin-1 heavy chain)
T2 sequence (P07949 713-1063 V804M limits assumed): T1 sequence (P07949 713-1063 V804L limits assumed) with L92M
Method: as §1, §2, §3, §4, §5, §6

Ba/F3-KIF5B-RET cells = target: T3, Ba/F3-KIF5B-RET cells (Homo sapiens, UniProt P07949); test: Cell anti-proliferation experiment (CellTiter-Glo), Ba/F3-KIF5B-RET; assay type: cell-based; settings: cell viability, 72 h
T3 construct: host or cells: Ba/F3 (BaF3 from RIKEN BRC CELL BANK); the other entry of the earlier key: KIF5B (P33176, Kinesin-1 heavy chain)
T3 sequence (P07949 713-1063 limits assumed): T1 sequence (P07949 713-1063 V804L limits assumed) with L92V
Method: as §1, §2, §3, §4, §5, §6

wild-type RET kinase = wild-type RET kinase (Homo sapiens, UniProt P07949); test: Enzyme activity test against wild-type RET kinase (33P-ATP filter-binding kinase activity assay); assay type: biochemical; settings: ATP Km concentration, 10 concentrations
Method: A biological activity test experiment was conducted below for some compounds of the above Examples and Comparative Example.
[…]. The biological activity screening of the compounds will be determined repeatedly at 10 concentrations.
Each sample was prepared into a solution with a concentration of 10 mM.
The test compound was dissolved in 100% dimethyl sulfoxide to a specific concentration. Integra Viaflo Assist was used to assist DMSO for (continuous) dilution.
Kinase was added to the newly prepared basic reaction buffer
Adding any desired cofactors to the substrate solution.
Adding wild-type RET kinase into the substrate solution and gently mixing;
Acoustic technology (Echo 550; Nanoliter range) was used to feed the compounds in 100% of dimethyl sulfoxide into the kinase reaction mixture and incubated at room temperature for 20 minutes.
33P-ATP (specific activity 10 Ci/l) was added to the reaction mixture to start the reaction.
Incubated at room temperature for 2 hours
Radioactivity was detected by filter-binding method.
Kinase activity data was expressed as the percentage of remaining kinase activity in the test sample compared to the vehicle (dimethyl sulfoxide) reaction. Prism (GRAPHPAD software) was used to obtain IC50 value and curve-fitting.

[5] = PO, versus control compound (BLU-667)

Chain of wild-type RET kinase (P07949 29-1114): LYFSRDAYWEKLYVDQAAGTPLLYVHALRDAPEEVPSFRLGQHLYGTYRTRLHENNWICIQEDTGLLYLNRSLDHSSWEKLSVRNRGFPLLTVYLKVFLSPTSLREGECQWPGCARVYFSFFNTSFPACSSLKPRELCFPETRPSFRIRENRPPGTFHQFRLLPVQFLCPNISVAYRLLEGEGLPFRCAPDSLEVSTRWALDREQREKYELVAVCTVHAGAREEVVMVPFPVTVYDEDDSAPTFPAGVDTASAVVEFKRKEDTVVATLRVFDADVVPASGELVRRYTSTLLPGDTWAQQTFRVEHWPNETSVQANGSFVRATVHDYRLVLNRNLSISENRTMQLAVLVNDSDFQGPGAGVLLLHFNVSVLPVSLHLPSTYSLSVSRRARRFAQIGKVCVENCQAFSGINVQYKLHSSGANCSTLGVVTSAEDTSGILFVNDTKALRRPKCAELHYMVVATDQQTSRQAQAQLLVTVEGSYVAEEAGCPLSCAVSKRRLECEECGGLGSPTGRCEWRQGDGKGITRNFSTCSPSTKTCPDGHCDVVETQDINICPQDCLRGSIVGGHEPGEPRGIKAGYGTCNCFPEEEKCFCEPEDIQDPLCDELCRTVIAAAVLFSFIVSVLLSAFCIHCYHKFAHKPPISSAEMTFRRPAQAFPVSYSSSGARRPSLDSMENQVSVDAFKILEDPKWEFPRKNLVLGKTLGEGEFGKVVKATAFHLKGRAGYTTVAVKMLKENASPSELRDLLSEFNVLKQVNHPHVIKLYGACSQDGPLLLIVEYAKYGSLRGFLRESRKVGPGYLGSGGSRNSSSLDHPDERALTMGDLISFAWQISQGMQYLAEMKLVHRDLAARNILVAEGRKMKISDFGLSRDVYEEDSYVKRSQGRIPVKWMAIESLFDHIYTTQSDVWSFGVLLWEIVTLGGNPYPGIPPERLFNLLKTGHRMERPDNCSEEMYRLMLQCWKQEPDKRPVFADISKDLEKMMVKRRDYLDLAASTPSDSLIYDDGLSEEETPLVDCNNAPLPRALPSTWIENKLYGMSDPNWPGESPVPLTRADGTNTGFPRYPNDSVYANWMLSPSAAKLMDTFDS

CO[C@]1(C(=O)N[C@@H](C)c2ccc(-n3cc(F)cn3)nc2)CC[C@H](c2nc(C)cc(Nc3cc(C)[nH]n3)n2)CC1 [BLU-667, reference compound]
CL_obs ([1]; IV, 2 mg/kg): 24.5 mL/min/kg
F [1]: 61.14%
AUC(0-inf) ([1]; IV, 2 mg/kg): 1410 ng·h/mL
AUC(0-t) ([1]; IV, 2 mg/kg): 1330 ng·h/mL
half-life ([1]; IV, 2 mg/kg): 5.52 h
MRT ([1]; IV, 2 mg/kg): 6.1 h
Vd ([1]; IV, 2 mg/kg): 8.53 L/kg
AUC(0-inf) ([1]; PO, 10 mg/kg): 4110 ng·h/mL
AUC(0-t) ([1]; PO, 10 mg/kg): 4080 ng·h/mL
Cmax ([1]; PO, 10 mg/kg): 632 ng/mL
Tmax ([1]; PO, 10 mg/kg): 4 h
half-life ([1]; PO, 10 mg/kg): 3.36 h
MRT ([1]; PO, 10 mg/kg): 5.08 h
ORR ([2]; patients with medullary thyroid carcinoma): 40%
ORR ([2]; patients with non-small cell lung cancer): 50%
overall remission rate (ORR) ([2]; tumor patients with RET fusion and mutation): 45%

CO[C@]1(C(=O)N[C@@H](C)c2ccc(-n3cc(F)cn3)nc2)CC[C@H](c2nc(Nc3cc(C)[nH]n3)ccc2C#N)CC1 [Compound C2]
IC50 [3]: 16.9 nM
IC50 [4]: 42.4 nM
IC50 (Ba/F3-KIF5B-RET cells): 23.1 nM
CL_obs ([1]; IV, 2 mg/kg): 8.67 mL/min/kg
F [1]: 11.96%
AUC(0-inf) ([1]; IV, 2 mg/kg): 3900 ng·h/mL
AUC(0-t) ([1]; IV, 2 mg/kg): 3850 ng·h/mL
half-life ([1]; IV, 2 mg/kg): 4.12 h
MRT ([1]; IV, 2 mg/kg): 4.89 h
Vd ([1]; IV, 2 mg/kg): 2.56 L/kg
AUC(0-inf) ([1]; PO, 10 mg/kg): 2320 ng·h/mL
AUC(0-t) ([1]; PO, 10 mg/kg): 2300 ng·h/mL
Cmax ([1]; PO, 10 mg/kg): 325 ng/mL
Tmax ([1]; PO, 10 mg/kg): 2 h
half-life ([1]; PO, 10 mg/kg): 3.26 h
MRT ([1]; PO, 10 mg/kg): 6.05 h
IC50 (wild-type RET kinase): 1.98 nM

CO[C@]1(C(=O)N[C@@H](C)c2ccc(-n3cc(F)cn3)nc2)CC[C@H](c2nc(Nc3cc(C)[nH]n3)cc3cccnc32)CC1 [Compound C4]
IC50 [3]: 7.1 nM
IC50 [4]: 17.3 nM
IC50 (Ba/F3-KIF5B-RET cells): 9.1 nM
CL_obs ([1]; IV, 2 mg/kg): 7.67 mL/min/kg
F [1]: 49.85%
maximum blood drug concentration (Cmax) increased compared with the control compound [1, 5]: 3-4 times
plasma exposure amount AUC increased compared with the control compound [1, 5]: 2-3 times
AUC(0-inf) ([1]; IV, 2 mg/kg): 4430 ng·h/mL
AUC(0-t) ([1]; IV, 2 mg/kg): 4390 ng·h/mL
half-life ([1]; IV, 2 mg/kg): 4.19 h
MRT ([1]; IV, 2 mg/kg): 3.74 h
Vd ([1]; IV, 2 mg/kg): 1.7 L/kg
AUC(0-inf) ([1]; PO, 10 mg/kg): 11000 ng·h/mL
AUC(0-t) ([1]; PO, 10 mg/kg): 10900 ng·h/mL
Cmax ([1]; PO, 10 mg/kg): 2460 ng/mL
Tmax ([1]; PO, 10 mg/kg): 2 h
half-life ([1]; PO, 10 mg/kg): 3.18 h
MRT ([1]; PO, 10 mg/kg): 4.3 h
IC50 (wild-type RET kinase): 1.02 nM
